Assay results taken from patent publication US6143724A, “2-fluorofucosyl-N-aroylglucosamine derivatives, intermediates, therefor, and processes for producing these” (Daikin Industries, Ltd., priority 1997, dated 2000).
“Also recorded” adds a separate entry of the source.

Columns and labels:
α-fucosidase = experiment: Evaluation of metabolic stability of sialyl Lewis X derivatives to α-fucosidase (TLC spot densitometry); format: in vitro ADME; conditions: for Spot Area: 28° C.
Description: The metabolic stability of various sialyl Lewis X derivatives to α-fucosidase was assayed. The various sialyl Lewis X derivatives which were used in Example [(2F-Fuc-t-Bu) SLcXOSE], Comparative Example 1 (SLeX Ganglioside), and Comparative Example 2 [(2F-Fuc) SLeX Ganglioside] are shown in the following structural formulas. Herein, the compound used in the present Example is the compound represented by said structural formula (β) obtained in said Example 11. [drawing 48] After […] of each sialyl Lewis X derivative was dissolved in 0.1 mL of dist. water, 0.1 mL of ammonium sulfate suspension of α-fucosidase (made by Wako Chemicals: 2 units or more/mg protein) was added to this solution at 28° C., then the reaction solution was charged on a silica gel TLC plate 5715 (made by Merck Company) at every reaction time course. After developing up to 2 cm using developing solvents (n-butanol:acetic acid:water=8:5:4), this was soaked in an aqueous solution of molybdenum phosphate/phosphoric acid/sulfuric acid mixture, and heated to color. The Rf values (moving ratio) on the TLC plate of products decomposed by α-fucosidase and each sialyl Lewis X derivative (substrate) were as follows.
Further, it was confirmed from the mass spectrum that each sialyl Lewis X derivative is decomposed by α-fucosidase, and the corresponding derivatives from which the fucose moiety was removed were produced as respective decomposed products. Further, as shown in following Table 1, the residual rates of the individual sialyl Lewis X derivatives were calculated from each spot area (hereinafter, sometimes referred to merely as the area) after each reaction time course as follows. Herein, each area was measured using a densitometer (software: VILBER LOURMAT BIOID V 6.31a): Residual rate of sialyl Lewis X derivative=(substrate area)/(total area of substrate area plus decomposed product area).

selectins = conditions: cited from earlier work
[1] = system: acute inflammation of the lung induced by cobra toxin; conditions: rats, Mulligan et al., Nature 364, 149 (1993); cited from earlier work
P selectin = molecular target: T1, P selectin (Homo sapiens, UniProt P16109); conditions: H. Kondo et al., J. Med. Chem. 39, 1339 (1996); cited from earlier work
T1 sequence (P16109 42-830): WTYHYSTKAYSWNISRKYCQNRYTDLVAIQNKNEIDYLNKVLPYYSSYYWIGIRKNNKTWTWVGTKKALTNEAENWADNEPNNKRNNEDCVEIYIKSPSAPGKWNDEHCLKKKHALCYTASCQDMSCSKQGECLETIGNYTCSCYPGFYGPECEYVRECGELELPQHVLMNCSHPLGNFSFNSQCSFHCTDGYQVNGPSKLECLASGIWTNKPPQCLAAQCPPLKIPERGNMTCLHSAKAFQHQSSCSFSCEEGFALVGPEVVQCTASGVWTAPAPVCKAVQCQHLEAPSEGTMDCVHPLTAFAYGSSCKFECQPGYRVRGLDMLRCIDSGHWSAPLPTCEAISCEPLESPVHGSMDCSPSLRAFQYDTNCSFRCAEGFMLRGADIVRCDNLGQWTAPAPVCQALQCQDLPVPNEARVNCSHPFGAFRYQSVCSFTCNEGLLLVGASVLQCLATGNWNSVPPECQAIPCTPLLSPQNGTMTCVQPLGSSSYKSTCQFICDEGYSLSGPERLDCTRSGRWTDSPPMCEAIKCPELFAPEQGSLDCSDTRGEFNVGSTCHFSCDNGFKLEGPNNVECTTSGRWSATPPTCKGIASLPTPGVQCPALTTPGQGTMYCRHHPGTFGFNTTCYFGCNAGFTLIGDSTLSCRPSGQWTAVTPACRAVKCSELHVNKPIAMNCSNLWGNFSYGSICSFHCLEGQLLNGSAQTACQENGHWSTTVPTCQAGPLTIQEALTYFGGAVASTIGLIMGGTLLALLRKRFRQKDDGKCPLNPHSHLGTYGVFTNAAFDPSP

[2] = time course 0 min after addition of α-fucosidase
[3] = time course 0.5 min after addition of α-fucosidase, * = color on the TLC completely disappeared
[4] = time course 1.0 min after addition of α-fucosidase

stability against / resistance to decomposition by α-fucosidase (in words, from FIG. 1) (α-fucosidase)	Spot Area (α-fucosidase; [2]) [cm^2]	Spot Area (α-fucosidase; [3]) [cm^2]	Structure (SMILES)	Spot Area (α-fucosidase; [4]) [cm^2]	also measured
rapid decomposition	1.0	0.0	CCCCCCCCCCCCC/C=C/[C@@H](O)[C@H](CO[C@@H]1O[C@H](CO)[C@@H](O[C@@H]2O[C@H](CO)[C@H](O)[C@H](O[C@@H]3O[C@H](CO)[C@@H](O[C@@H]4O[C@H](CO)[C@H](O)[C@H](O[C@]5(C(=O)O)C[C@H](O)[C@@H](NC(C)=O)[C@H]([C@H](O)[C@H](O)CO)O5)[C@H]4O)[C@H](O[C@@H]4O[C@@H](C)[C@@H](O)[C@@H](O)[C@@H]4O)[C@H]3NC(C)=O)[C@H]2O)[C@H](O)[C@H]1O)NC(=O)CCCCCCCCCCCCCCCCC [Comparative Example 1]		
weak resistance to decomposition	1.0	0.36	CCCCCCCCCCCCC/C=C/[C@@H](O)[C@H](CO[C@@H]1O[C@H](CO)[C@@H](O[C@@H]2O[C@H](CO)[C@H](O)[C@H](O[C@@H]3O[C@H](CO)[C@@H](O[C@@H]4O[C@H](CO)[C@H](O)[C@H](O[C@]5(C(=O)O)C[C@H](O)[C@@H](NC(C)=O)[C@H]([C@H](O)[C@H](O)CO)O5)[C@H]4O)[C@H](O[C@@H]4O[C@@H](C)[C@@H](O)[C@@H](O)[C@@H]4F)[C@H]3NC(C)=O)[C@H]2O)[C@H](O)[C@H]1O)NC(=O)CCCCCCCCCCCCCCCCCCCCCCC [Comparative Example 2]	0.30	
			CCCCCCCCCCCCCCC(CCCCCCCCCCCCCC)CO[C@@H]1O[C@H](CO)[C@@H](O[C@@H]2O[C@H](CO)[C@H](O)[C@H](OS(=O)(=O)O)[C@H]2O)[C@H](O[C@@H]2O[C@@H](C)[C@@H](O)[C@@H](O)[C@@H]2O)[C@H]1NC(C)=O [GSC-150]		selectin adhesion-inhibitory activity (in words) (selectins): powerful selectin blocker
			CC(=O)NC1C(O)CC(OC2C(O)C(CO)OC(OC3C(CO)OC(O)C(NC(C)=O)C3OC3OC(C)C(O)C(O)C3O)C2O)(C(=O)O)OC1C(O)C(O)CO (centres unmarked) [structural formula (III)]		acute inflammation of the lung [1]: reduced
			CC(=O)NC1COC(CO)C(OC2OC(CO)C(O)C(OC3(C(=O)O)CC(O)C(NC(C)=O)C(C(O)C(O)CO)O3)C2O)C1OC1OC(C)C(O)C(O)C1O (centres unmarked) [structural formula (V)]		adhesion-inhibitory activity to P selectin relative to the sialyl Lewis X glycoside of Structural Formula (III) (P selectin): 20 times

Structure (SMILES)	stability against / resistance to decomposition by α-fucosidase (in words, from FIG. 1) (α-fucosidase)	Spot Area (α-fucosidase; [2]) [cm^2]	Spot Area (α-fucosidase; [3]) [cm^2]	Spot Area (α-fucosidase; [4]) [cm^2]	also measured
CC(=O)NC1C(O)CC(OC2C(O)C(CO)OC(OC3C(CO)OC(OC4C(O)C(CO)OC(OC5C(CO)OC(OCC[Si](C)(C)C)C(O)C5O)C4O)C(NC(=O)c4ccc(C(C)(C)C)cc4)C3OC3OC(C)C(O)C(O)C3F)C2O)(C(=O)O)OC1C(O)C(O)CO [Example, 2-(trimethylsilyl)ethyl O-(5-acetamide-3,5-dideoxy-D-glycero-α-D-galacto-2-nunolopyranosylonic acid)-(2→3)-O-β-D-galactopyranosyl-(1→4)-O-[(2-deoxy-2-fluoro-α-L-fucopyranosyl)-(1→3)]-O-[(2-deoxy-2-(4-t-butylbenzamide)-β-D-glucopyranosyl)]-(1→3)-(O-β-D-galactopyranosyl)-(1→4)-β-D-glucopyranoside]	excellent in stability against α-fucosidase; also recorded: strongly resistant to decomposition reaction	1.0		0.73	Spot Area (α-fucosidase; time course 2.0 min after addition of α-fucosidase): 0.44 cm^2
